The record followed here is ChEMBL document CHEMBL1134194, “Anti-HIV activity of aromatic and heterocyclic thiazolyl thiourea compounds” (Bioorg Med Chem Lett, 2001).

Test [1] is described as follows: Cytotoxic concentration was evaluated against human peripheral blood mononuclear cells (PBMC). In kind it is functional.
Test [2] concerns Human immunodeficiency virus 1. The test can be described thus: Selectivity index was determined. In kind it is functional.
Test [3] has as its system Human immunodeficiency virus 1. The test can be described thus: Tested for the ability to inhibit the replication of HIV-1 strain HTLV IIIB in human peripheral blood mononuclear cells (PBMC). In kind it is functional, organism-based.
The target of test [4] is Human immunodeficiency virus type 1 reverse transcriptase (Human immunodeficiency virus 1, UniProt Q72547, K103N/Y181C). The test can be described thus: Inhibitory activity against non-nucleoside reverse transcriptase inhibitors (NNRTI) -resistant HIV-1 strain A17 variant with Y181C plus K103N mutations in RT (reverse transcriptase).

Counter-ions that a name gives are not always drawn.

For the molecule `S=C(NCCc1cccs1)Nc1nccs1`, in test [1], it took 71 µM to reach half-maximal cytotoxicity (CC50). This molecule gave a Selectivity index in test [2] of 71000. In test [3], this molecule gave an IC50 of less than 0.001 µM.

`S=C(NCCc1c[nH]c2ccccc12)Nc1nccs1`: the CC50 in test [1] was found to be 28 µM. The molecule also gave a Selectivity index in test [2] of 28000. For the same molecule, the half-inhibitory concentration (IC50) is 3.7 µM in test [4] and less than 0.001 µM in test [3].

Regarding `S=C(NCCCn1ccnc1)Nc1nccs1`, the CC50 in test [1] is 35 µM. The molecule further showed a Selectivity index in test [2] of 35000. For the same molecule, the IC50 in test [4] is more than 100 µM; in test [3], less than 0.001 µM.

Take `CCC(NC(=S)Nc1nccs1)c1ccccc1` (stereo unspecified): the IC50 in test [4] was 1.5 µM.

`S=C(NCCOc1ccccc1)Nc1nccs1` gave a CC50 in test [1] of more than 100 µM. This molecule gave a Selectivity index in test [2] of more than 100000. The IC50 in test [4] is more than 100 µM; in test [3], less than 0.001 µM.

Regarding `Cc1ccc(CC/N=C(\S)Nc2nccs2)cc1`, in test [1], the CC50 was more than 100 µM. Further, in test [2], the Selectivity index turned out to be 1429. Also, the IC50 in test [4] is more than 100 µM; in test [3], 0.07 µM.

Molecule `Oc1ccc(CC/N=C(\S)Nc2nccs2)cc1` had an IC50 in test [3] of more than 100 µM.

In test [1], `S=C(NCCc1cccs1)Nc1ccc(Br)cn1` had a CC50 of more than 100 µM. In addition, the IC50 in test [4] came out at 3.3 µM.

`S=C(NCCc1ccccn1)Nc1nccs1` had a CC50 in test [1] of 100 µM. For the same molecule, the Selectivity index in test [2] is recorded as 100. Besides, in test [3], inhibition was half-maximal at 1 µM (IC50).

In test [1], `S=C(NCc1ccco1)Nc1nccs1` came in with a CC50 of more than 100 µM. This molecule also showed a Selectivity index in test [2] of more than 100000. The IC50 in test [4] is 0.6 µM; in test [3] it was less than 0.001 µM.

With `S=C(NCC12CC3CC(CC(C3)C1)C2)Nc1nccs1`, the CC50 in test [1] turned out to be 40 µM. Besides, the Selectivity index in test [2] worked out at 40000. Also, the IC50 was 1.3 µM in test [4] and less than 0.001 µM in test [3].

In the case of `CC(C)Nc1cccnc1N1CCN(C(=O)c2cc3cc(NS(C)(=O)=O)ccc3[nH]2)CC1` [DELAVIRDINE MESYLATE], 0.009 µM corresponded to half-maximal inhibition in test [3] (IC50).

As for `S=C(NCCN1CCCCC1)Nc1nccs1`, the IC50 in test [3] is more than 100 µM.

Turning to `S=C(NCCC1=CCCCC1)Nc1nccs1`, in test [4], the IC50 was more than 100 µM.

Regarding `Cc1ccnc2c1NC(=O)c1cccnc1N2C1CC1` [NEVIRAPINE], half-maximal inhibition in test [3] (IC50) required 0.034 µM.

The molecule `Oc1ccc(CCNC(=S)Nc2ccc(Br)cn2)cc1` had a CC50 in test [1] of more than 100 µM. Moreover, the IC50 in test [4] is more than 100 µM; in test [3], 0.007 µM.
